{"source": "paper PMC6920801", "about": "“Conformation and Aggregation of Human Serum Albumin in the Presence of Green Tea Polyphenol (EGCg) and/or Palmitic Acid” (Biomolecules, 2019)", "target": "T1, Human serum albumin (HSA) (Homo sapiens, UniProt P02768)", "T1 construct": "gene ALB; fatty acid-free albumin from human serum; CPM-labelled at Cys-34 for FRET", "T1 sequence (P02768 25-609)": "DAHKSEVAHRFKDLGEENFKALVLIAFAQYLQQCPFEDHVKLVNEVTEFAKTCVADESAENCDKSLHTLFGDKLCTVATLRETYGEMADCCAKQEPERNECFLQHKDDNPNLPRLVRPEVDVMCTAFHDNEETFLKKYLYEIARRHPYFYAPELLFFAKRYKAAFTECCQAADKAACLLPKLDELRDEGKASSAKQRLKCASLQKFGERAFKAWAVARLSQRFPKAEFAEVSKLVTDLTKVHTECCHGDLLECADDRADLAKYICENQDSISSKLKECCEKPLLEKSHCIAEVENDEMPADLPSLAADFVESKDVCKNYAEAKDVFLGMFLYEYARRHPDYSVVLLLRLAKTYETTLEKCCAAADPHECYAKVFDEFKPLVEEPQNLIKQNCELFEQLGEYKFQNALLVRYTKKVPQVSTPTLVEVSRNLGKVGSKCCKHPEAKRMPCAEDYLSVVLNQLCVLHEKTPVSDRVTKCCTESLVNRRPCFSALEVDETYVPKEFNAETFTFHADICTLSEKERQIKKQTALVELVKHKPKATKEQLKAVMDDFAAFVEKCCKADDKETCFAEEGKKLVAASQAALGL", "experiment": "FRET (Trp-214 to CPM-Cys-34) titration with one-site fit; Trp fluorescence quenching, CD, DLS", "format": "binding", "text": "FRET (Trp-214 to CPM-Cys-34) titration with one-site fit; Trp fluorescence quenching, CD, DLS on Human serum albumin (HSA) | The effect was dose dependent and fit a one binding site isotherm, with a calculated maximum change in distance"}
{"smiles": "O=C(O[C@@H]1Cc2c(O)cc(O)cc2O[C@@H]1c1cc(O)c(O)c(O)c1)c1cc(O)c(O)c(O)c1", "note": "[EGCg, (-)-epigallocatechin gallate]", "values": [{"measurement": "EC50", "value": 3.7, "unit": "µM"}]}
